The results in this text go back to ChEMBL document CHEMBL6120941, “Discovery of SIRT1-Activating Hydrogen Sulfide Donating Derivatives for Efficient Resistant of Myocardial Ischemic Injury” (J Med Chem, 2024).

Calls of active or inactive are those of the source. The calls are words filed in the database; no cut-off is given here.

The test system of assay [1] is H9c2. Nature of the assay: Cardioprotective activity against CoCl2-induced cellular hypoxia injury in rat H9c2 cells assessed as cell viability at 0.625 uM incubated for 24 hrs by CCK-8 assay (reference value: 51.80 +/- 2.58 %). It is filed as functional. The following applies: read-out: Activity.
Assay [2] is described as follows: Induction of H2S release in PBS at pH 7.4 at 100 uM measured upto 60 mins by methylene blue method. It is filed as functional.
For assay [3], the system named is H9c2. Nature of the assay: Induction of H2S release in rat H9c2 cells incubated for 24 hrs by AzMC probe based analysis. It is filed as functional, cell-based. The following applies: dose 1.25-10 µM.
Assay [4] has as its system H9c2. Nature of the assay: Cardioprotective activity against CoCl2-induced cellular hypoxia injury in rat H9c2 cells assessed as cell viability at 10 uM incubated for 24 hrs by CCK-8 assay (reference value: 51.80 +/- 2.58 %). It is filed as functional. The following applies: read-out: Activity.
Assay [5] relates to H9c2. Kind of assay: Cardioprotective activity against CoCl2-induced cellular hypoxia injury in rat H9c2 cells assessed as cell viability at 2.5 uM incubated for 24 hrs by CCK-8 assay (reference value: 51.80 +/- 2.58 %). The format is functional. The following applies: read-out: Activity.
Assay [6] can be described thus: Induction of H2S release in PBS at pH 7.4 measured upto 60 mins by methylene blue method. It is filed as functional.
The test system of assay [7] is H9c2. Nature of the assay: Cardioprotective activity against CoCl2-induced cellular hypoxia injury in rat H9c2 cells assessed as increase in cell viability at 30 uM incubated for 24 hrs by CCK-8 assay. The format is functional, cell-based.
The test system of assay [8] is H9c2. Nature of the assay: Cardioprotective activity against CoCl2-induced cellular hypoxia injury in rat H9c2 cells assessed as cell viability at 5 uM incubated for 24 hrs by CCK-8 assay (reference value: 51.80 +/- 2.58 %). The following applies: read-out: Activity. It is filed as functional.
Assay [9] concerns H9c2. Nature of the assay: Cardioprotective activity against CoCl2-induced cellular hypoxia injury in rat H9c2 cells assessed as cell viability at 1.25 uM incubated for 24 hrs by CCK-8 assay (reference value: 51.80 +/- 2.58 %). The following applies: read-out: Activity. The format is functional.
Assay [10] concerns the target T1, NAD-dependent protein deacetylase sirtuin-1 (Homo sapiens) (UniProt Q96EB6).
T1 sequence (whole entry): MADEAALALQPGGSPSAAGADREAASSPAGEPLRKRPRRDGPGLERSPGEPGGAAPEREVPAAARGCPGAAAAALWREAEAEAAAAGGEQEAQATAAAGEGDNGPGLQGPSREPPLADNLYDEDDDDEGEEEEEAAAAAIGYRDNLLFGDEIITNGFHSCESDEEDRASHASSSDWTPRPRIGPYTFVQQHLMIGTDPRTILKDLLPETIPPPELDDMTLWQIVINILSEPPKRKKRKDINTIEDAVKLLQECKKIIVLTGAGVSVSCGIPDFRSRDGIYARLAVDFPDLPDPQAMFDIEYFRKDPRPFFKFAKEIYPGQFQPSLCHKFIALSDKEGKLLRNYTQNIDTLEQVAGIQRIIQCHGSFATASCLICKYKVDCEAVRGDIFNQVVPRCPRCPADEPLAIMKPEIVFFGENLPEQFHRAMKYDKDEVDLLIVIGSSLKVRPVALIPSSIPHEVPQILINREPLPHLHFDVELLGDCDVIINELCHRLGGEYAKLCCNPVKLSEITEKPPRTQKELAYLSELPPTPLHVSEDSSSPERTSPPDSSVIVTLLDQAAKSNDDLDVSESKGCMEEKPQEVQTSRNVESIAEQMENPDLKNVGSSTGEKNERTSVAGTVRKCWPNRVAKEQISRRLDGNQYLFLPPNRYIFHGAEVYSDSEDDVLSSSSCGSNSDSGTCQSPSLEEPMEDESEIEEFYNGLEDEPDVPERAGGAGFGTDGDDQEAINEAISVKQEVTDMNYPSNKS
Kind of assay: Activation of SIRT1 (unknown origin) using RHKK-ac-AMC as substrate incubated for 2 hrs by FDL assay relative to control. The following applies: filed as activator.

For the molecule `CC(C)(O)[C@H]1CC[C@@](C)([C@H]2CC[C@]3(C)[C@@H]2[C@H](O)C[C@@H]2[C@@]4(C)CC[C@H](OC(=O)CCC(=O)Oc5ccc(-c6nc(=O)ss6)cc5)C(C)(C)[C@@H]4CC[C@]23C)O1`, the viability at 0.625 µM with H9c2 [1] was 76.4%. Further, the result in assay [2] was Active. The Activity result is “Dose-dependent-effect” in the assay on H9c2 [3] and 7 µM in [6]. In addition, the viability at 10 µM with H9c2 [4] is 91.4%. Moreover, the viability at 2.5 µM with H9c2 [5] came to 84.7%. Moreover, the result with H9c2 [7] was inactive. In the assay on H9c2 [8], the viability at 5 µM worked out at 86.8%. The viability at 1.25 µM with H9c2 [9] stood at 82%.

As for `CC(C)(O)[C@@H]1CC[C@@](C)([C@H]2CC[C@]3(C)[C@@H]2[C@H](O)C[C@@H]2[C@@]4(C)CC[C@H](OC(=O)CCC(=O)Oc5ccc(-c6nc(=O)ss6)cc5)C(C)(C)[C@@H]4CC[C@]23C)O1`, the viability at 0.625 µM with H9c2 [1] turned out to be 73.5%. Besides, the result in assay [2] was Active. Further, the Activity result in the assay with H9c2 [3] was “Dose-dependent-effect”; in assay [6] it was 10 µM. Moreover, the viability at 10 µM in the assay with H9c2 [4] is 92.2%. The viability at 2.5 µM with H9c2 [5] amounted to 87.7%. For the same molecule, in the assay on H9c2 [7], the outcome was inactive. Further, in the assay on H9c2 [8], the viability at 5 µM stood at 91%. In the assay on H9c2 [9], the viability at 1.25 µM came out at 81.6%.

For the molecule `CC(C)=CCC[C@](C)(O)[C@H]1CC[C@]2(C)[C@@H]1[C@H](O)C[C@@H]1[C@@]3(C)CC[C@H](OC(=O)c4ccc(N=C=S)cc4)C(C)(C)[C@@H]3[C@@H](O)C[C@]12C`, the viability at 0.625 µM in the assay with H9c2 [1] turned out to be 50.9%. The viability at 10 µM in the assay on H9c2 [4] came out at 54.8%. The viability at 2.5 µM in the assay on H9c2 [5] is 54%. In addition, the result in the assay on H9c2 [7] was inactive. For the same molecule, the viability at 5 µM in the assay with H9c2 [8] is 56.6%. Also, the viability at 1.25 µM in the assay with H9c2 [9] came out at 55.2%.

Consider `CC(C)(O)[C@@H]1CC[C@@](C)([C@H]2CC[C@]3(C)[C@@H]2[C@H](O)C[C@@H]2[C@@]4(C)CC[C@H](OC(=O)c5ccc(N=C=S)cc5)C(C)(C)[C@@H]4[C@@H](O)C[C@]23C)O1`, for which, in the assay with H9c2 [1], the viability at 0.625 µM was found to be 56.9%. Moreover, in the assay on H9c2 [4], the viability at 10 µM was found to be 63.1%. Besides, in the assay with H9c2 [5], the viability at 2.5 µM worked out at 58.8%. Further, the result with H9c2 [7] was inactive. The viability at 5 µM with H9c2 [8] amounted to 61.4%. For the same molecule, the viability at 1.25 µM with H9c2 [9] amounted to 55.5%.

Take `CC(C)(O)[C@@H]1CC[C@@](C)([C@H]2CC[C@]3(C)[C@@H]2[C@H](O)C[C@@H]2[C@@]4(C)CC[C@H](OC(=O)CCC(=O)Oc5ccc(-c6nc(=O)ss6)cc5)C(C)(C)[C@@H]4[C@@H](O)C[C@]23C)O1`: in the assay with H9c2 [1], the viability at 0.625 µM stood at 70.1%. For the same molecule, the result in assay [2] was Active. For the same molecule, the Activity entry in the assay on H9c2 [3] was “Dose-dependent-effect”; in assay [6], 10.5 µM. Further, the viability at 10 µM in the assay with H9c2 [4] was 94.2%. Further, in the assay on H9c2 [5], the viability at 2.5 µM was determined as 83.7%. For the same molecule, the result in the assay on H9c2 [7] was inactive. Further, in the assay with H9c2 [8], the viability at 5 µM worked out at 89.1%. Moreover, in the assay with H9c2 [9], the viability at 1.25 µM was determined as 77.4%.

As to `CC(C)(O)[C@H]1CC[C@@](C)([C@H]2CC[C@]3(C)[C@@H]2[C@H](O)C[C@@H]2[C@@]4(C)CC[C@H](O)C(C)(C)[C@@H]4[C@@H](O)C[C@]23C)O1`, in the assay on H9c2 [1], the viability at 0.625 µM was determined as 56.5%. Moreover, in the assay on H9c2 [4], the viability at 10 µM was found to be 61.5%. In addition, the viability at 2.5 µM with H9c2 [5] came out at 57%. The outcome with H9c2 [7] was inactive. In the assay with H9c2 [8], the viability at 5 µM stood at 55.6%. In the assay on H9c2 [9], the viability at 1.25 µM worked out at 55.6%.

As for `CC(C)(O)[C@@H]1CC[C@@](C)([C@H]2CC[C@]3(C)[C@@H]2[C@H](O)C[C@@H]2[C@@]4(C)CC[C@H](O)C(C)(C)[C@@H]4CC[C@]23C)O1`, in the assay with H9c2 [1], the viability at 0.625 µM is 70.6%. Besides, in assay [10], the Activity is 123%. In addition, the viability at 10 µM with H9c2 [4] was 81.2%. The viability at 2.5 µM in the assay with H9c2 [5] worked out at 74.8%. Moreover, in the assay on H9c2 [7], the result was inactive. Further, in the assay with H9c2 [8], the viability at 5 µM was found to be 79.1%. Further, the viability at 1.25 µM in the assay with H9c2 [9] is 72.6%.

On to `C=CCSSCCC(=O)O[C@H]1CC[C@]2(C)[C@H]3C[C@@H](O)[C@@H]4[C@@H]([C@]5(C)CC[C@@H](C(C)(C)O)O5)CC[C@@]4(C)[C@]3(C)C[C@H](O)[C@H]2C1(C)C`, for which the viability at 0.625 µM with H9c2 [1] came out at 74.7%. The outcome in assay [2] was Active. The figures for the Activity entry (with H9c2 [3]; in assay [6]) were “Dose-dependent-effect” and 17.4 µM, respectively. For the same molecule, in the assay with H9c2 [4], the viability at 10 µM stood at 95.3%. Also, in the assay with H9c2 [5], the viability at 2.5 µM was found to be 79.1%. Besides, the result in the assay with H9c2 [7] was inactive. Moreover, the viability at 5 µM with H9c2 [8] is 89.1%. Besides, the viability at 1.25 µM in the assay on H9c2 [9] came to 74.2%.

Turning to `CC(C)=CCC[C@](C)(O)[C@H]1CC[C@]2(C)[C@@H]1[C@H](O)C[C@@H]1[C@@]3(C)CC[C@H](OC(=O)c4ccc(N=C=S)cc4)C(C)(C)[C@@H]3CC[C@]12C`, the viability at 0.625 µM with H9c2 [1] came to 54.7%. In the assay on H9c2 [4], the viability at 10 µM was 61.5%. For the same molecule, in the assay on H9c2 [5], the viability at 2.5 µM amounted to 60.7%. Besides, the outcome in the assay on H9c2 [7] was inactive. Also, the viability at 5 µM in the assay on H9c2 [8] stood at 67.5%. Besides, the viability at 1.25 µM with H9c2 [9] is 61%.
